Values after ≈ are worked out from the molar mass of the structure shown. A value given as a limit tells only on which side of the number the result lay.

Data on 6 molecules can be found in ChEMBL document CHEMBL1124638, “2,4-Diamino-5-benzylpyrimidines and analogues as antibacterial agents. 10. 2,4-Diamino-5-(6-quinolylmethyl)- and -[(tetrahydro-6-quinolyl)methyl]pyrimidine derivatives. Further specificity studies” (J Med Chem, 1989).

For experiment [1], the system named is Bordetella bronchiseptica. Briefly: Comparative in vitro antibacterial activity with trimethoprim against Bordetella bronchiseptica CN385. Type of experiment: functional.
The subject of another experiment is Citrobacter freundii. Briefly: Comparative in vitro antibacterial activity with trimethoprim against Citrobacter freundii 2200/77. Type of experiment: functional.
Experiment [2] deals with T1, Dihydrofolate reductase (Rattus norvegicus, UniProt Q920D2).
T1 sequence (Q920D2 whole entry): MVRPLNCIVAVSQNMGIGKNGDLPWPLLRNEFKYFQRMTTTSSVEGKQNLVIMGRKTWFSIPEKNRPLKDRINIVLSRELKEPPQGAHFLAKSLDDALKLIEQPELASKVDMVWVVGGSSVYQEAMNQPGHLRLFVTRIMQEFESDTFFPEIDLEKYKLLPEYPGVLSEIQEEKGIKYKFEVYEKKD
The experiment in a line: Inhibitory activity against dihydrofolate reductase in rat liver. The settings on record: read-out: I50.

Experiment [3] addresses Dihydrofolate reductase (Neisseria gonorrhoeae, UniProt P04174). The experiment in a line: Inhibitory activity against Dihydrofolate reductase in Neisseria gonorrhoeae. The note with it: read-out: I50.
A further experiment has as its system Escherichia coli. Briefly: Comparative in vitro antibacterial activity with trimethoprim against Escherichia coli CN314. Type of experiment: functional.
In a further experiment the test system is Klebsiella aerogenes. The experiment in a line: Comparative in vitro antibacterial activity with trimethoprim against Enterobacter aerogenes 2200/86. Format: functional.
Experiment [4] concerns Mycolicibacterium smegmatis. The experiment in a line: Comparative in vitro antibacterial activity with trimethoprim against Mycobacterium smegmatis S 3254. Type of experiment: functional.
A further experiment has as its system Proteus mirabilis. Briefly: Comparative in vitro antibacterial activity with trimethoprim against Proteus mirabilis S2409. Type of experiment: functional.
The next experiment has as its system Proteus vulgaris. Briefly: Comparative in vitro antibacterial activity with trimethoprim against Proteus vulgaris CN329. Format: functional.
A short description of experiment [5]: Comparative in vitro antibacterial activity with trimethoprim against Salmonella typhi CN512. Type of experiment: functional, salmonella typhosa.
The subject of another experiment is Shigella flexneri. Briefly: Comparative in vitro antibacterial activity with trimethoprim against Shigella flexneri CN6007. Format: functional.
The test system of the next experiment is Serratia marcescens. Briefly: Comparative in vitro antibacterial activity with trimethoprim against Serratia marcescens CN2398. Type of experiment: functional.
A further experiment deals with Salmonella typhimurium. Briefly: Comparative in vitro antibacterial activity with trimethoprim against Salmonella Typhimurium S 8587. The note with it: Salmonella enterica. Format: functional, Salmonella enterica subsp. enterica serovar Typhimurium.
In the next experiment the test system is Streptococcus pyogenes. The experiment in a line: Comparative in vitro antibacterial activity of compound with trimethoprim against Streptococcus pyogenes CN10. Format: functional.
Another experiment concerns Staphylococcus aureus. The experiment in a line: Comparative in vitro antibacterial activity with trimethoprim against Staphylococcus aureus CN491. Format: functional.
The next experiment concerns Enterococcus faecalis. Briefly: Comparative in vitro antibacterial activity with trimethoprim against Streptococcus faecalis CN478. Type of experiment: functional.
The subject of another experiment is Streptococcus agalactiae. The experiment in a line: Comparative in vitro antibacterial activity with trimethoprim against Streptococcus agalactiae CN1143. Format: functional.
In the next experiment the test system is Vibrio cholerae. Briefly: Comparative in vitro antibacterial activity with trimethoprim against Vibrio cholerae ATCC 14035. Format: functional.
The subject of the next experiment is Pasteurella multocida. The experiment in a line: Comparative in vitro antibacterial activity with trimethoprim against Pasteurella multocida ATCC 6587. Type of experiment: functional.
The next experiment has as its system Klebsiella pneumoniae. The experiment in a line: Comparative in vitro antibacterial activity with trimethoprim against Klebsiella pneumoniae CN3632. Format: functional.

Dihydrofolate reductase (Neisseria gonorrhoeae, UniProt P04174), sequence (P04174 whole entry): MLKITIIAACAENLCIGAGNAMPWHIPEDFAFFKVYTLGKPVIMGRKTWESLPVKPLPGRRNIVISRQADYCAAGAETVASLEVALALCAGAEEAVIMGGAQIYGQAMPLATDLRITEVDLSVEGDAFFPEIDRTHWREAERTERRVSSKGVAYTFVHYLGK

As for `CC1CCNc2ccc(Cc3cnc(N)nc3N)cc21` (stereo unspecified), the MIC (usually the smallest concentration in the dilution series that meets the test's criterion for growth inhibition) worked out at 10 µg/mL (≈ 37.1 µM) in experiment [1]; 30 µg/mL (≈ 111 µM) in the experiment on Citrobacter freundii; 30 µg/mL (≈ 111 µM) in the experiment with Escherichia coli; 10 µg/mL (≈ 37.1 µM) against Klebsiella aerogenes; 3 µg/mL (≈ 11.1 µM) in experiment [4]; 10 µg/mL (≈ 37.1 µM) against Proteus mirabilis. Moreover, the MIC with Proteus vulgaris is 10 µg/mL (≈ 37.1 µM); in [5], 10 µg/mL (≈ 37.1 µM); against Shigella flexneri, 30 µg/mL (≈ 111 µM); in the experiment on Serratia marcescens it was 10 µg/mL (≈ 37.1 µM); against Salmonella typhimurium, 10 µg/mL (≈ 37.1 µM); with Streptococcus pyogenes, 1 µg/mL (≈ 3.71 µM). Also, the MIC in the experiment with Staphylococcus aureus amounted to 3 µg/mL (≈ 11.1 µM); against Enterococcus faecalis, 3 µg/mL (≈ 11.1 µM); against Streptococcus agalactiae, 3 µg/mL (≈ 11.1 µM); in the experiment with Vibrio cholerae it was 3 µg/mL (≈ 11.1 µM); against Pasteurella multocida it was 3 µg/mL (≈ 11.1 µM); against Klebsiella pneumoniae, 30 µg/mL (≈ 111 µM). Moreover, the IC50 on Dihydrofolate reductase [2] is 22 µM; on Dihydrofolate reductase [3] it was 0.4 µM.

Turning to `CCc1cc(Cc2cnc(N)nc2N)cc2c1N(C)CCC2C` (stereo unspecified), the MIC in experiment [1] was 1 µg/mL (≈ 3.21 µM); against Citrobacter freundii, 3 µg/mL (≈ 9.63 µM); against Escherichia coli, 3 µg/mL (≈ 9.63 µM); in the experiment with Klebsiella aerogenes, 1 µg/mL (≈ 3.21 µM); in [4] it was 3 µg/mL (≈ 9.63 µM); with Proteus mirabilis it was 3 µg/mL (≈ 9.63 µM). Also, the MIC is 10 µg/mL (≈ 32.1 µM) with Proteus vulgaris; 10 µg/mL (≈ 32.1 µM) in experiment [5]; 10 µg/mL (≈ 32.1 µM) against Shigella flexneri; 3 µg/mL (≈ 9.63 µM) against Serratia marcescens; 1 µg/mL (≈ 3.21 µM) with Salmonella typhimurium; 1 µg/mL (≈ 3.21 µM) against Streptococcus pyogenes. The MIC came out at 0.03 µg/mL (≈ 0.0963 µM) against Staphylococcus aureus; 0.03 µg/mL (≈ 0.0963 µM) in the experiment with Enterococcus faecalis; 1 µg/mL (≈ 3.21 µM) against Streptococcus agalactiae; 3 µg/mL (≈ 9.63 µM) in the experiment on Vibrio cholerae; 3 µg/mL (≈ 9.63 µM) against Pasteurella multocida; 3 µg/mL (≈ 9.63 µM) in the experiment with Klebsiella pneumoniae. For the same molecule, the values for the IC50 at Dihydrofolate reductase [2] and at Dihydrofolate reductase [3] were 44 µM and 0.3 µM, respectively.

Regarding `CN1CCCc2cc(Cc3cnc(N)nc3N)ccc21`, the MIC was found to be 30 µg/mL (≈ 111 µM) in experiment [1]; 30 µg/mL (≈ 111 µM) in the experiment on Citrobacter freundii; 30 µg/mL (≈ 111 µM) with Escherichia coli; 30 µg/mL (≈ 111 µM) against Klebsiella aerogenes; 10 µg/mL (≈ 37.1 µM) in experiment [4]; 10 µg/mL (≈ 37.1 µM) against Proteus mirabilis. Further, the MIC was 30 µg/mL (≈ 111 µM) in the experiment with Proteus vulgaris; 30 µg/mL (≈ 111 µM) in [5]; 10 µg/mL (≈ 37.1 µM) in the experiment on Shigella flexneri; 30 µg/mL (≈ 111 µM) against Serratia marcescens; 30 µg/mL (≈ 111 µM) against Salmonella typhimurium; 10 µg/mL (≈ 37.1 µM) in the experiment on Staphylococcus aureus. Moreover, the minimal inhibitory concentration (MIC) in the experiment on Enterococcus faecalis worked out at 3 µg/mL (≈ 11.1 µM); in the experiment with Streptococcus agalactiae, 10 µg/mL (≈ 37.1 µM); against Vibrio cholerae, 10 µg/mL (≈ 37.1 µM); against Pasteurella multocida, 30 µg/mL (≈ 111 µM); with Klebsiella pneumoniae, 30 µg/mL (≈ 111 µM). The IC50 at Dihydrofolate reductase [2] is 89 µM; at Dihydrofolate reductase [3], 0.95 µM.

As to `COc1cc(Cc2cnc(N)nc2N)cc2c1NCC(CO)C2` (stereo unspecified), the MIC in experiment [1] is 30 µg/mL (≈ 95.1 µM); in the experiment with Citrobacter freundii, 30 µg/mL (≈ 95.1 µM); with Escherichia coli, 10 µg/mL (≈ 31.7 µM); against Klebsiella aerogenes it was 30 µg/mL (≈ 95.1 µM); in experiment [4], 10 µg/mL (≈ 31.7 µM); against Proteus mirabilis it was above 30 µg/mL. In addition, the MIC is 100 µg/mL (≈ 317 µM) in the experiment with Proteus vulgaris; 10 µg/mL (≈ 31.7 µM) in experiment [5]; 30 µg/mL (≈ 95.1 µM) with Shigella flexneri; above 10 µg/mL against Serratia marcescens; 10 µg/mL (≈ 31.7 µM) in the experiment on Salmonella typhimurium; 10 µg/mL (≈ 31.7 µM) in the experiment with Streptococcus pyogenes. Also, the MIC against Staphylococcus aureus turned out to be 3 µg/mL (≈ 9.51 µM); against Enterococcus faecalis, 3 µg/mL (≈ 9.51 µM); in the experiment on Streptococcus agalactiae it was 10 µg/mL (≈ 31.7 µM); against Vibrio cholerae, 3 µg/mL (≈ 9.51 µM); against Pasteurella multocida it was 30 µg/mL (≈ 95.1 µM); against Klebsiella pneumoniae it was 10 µg/mL (≈ 31.7 µM). Besides, the results for the IC50 on Dihydrofolate reductase [2] and at Dihydrofolate reductase [3] were 64 µM and 0.41 µM, respectively.

Take `CCOC(=O)C1CNc2c(cc(Cc3cnc(N)nc3N)cc2OC)C1` (stereo unspecified): the MIC in experiment [1] is above 100 µg/mL; against Citrobacter freundii, 10 µg/mL (≈ 28 µM); against Escherichia coli, 30 µg/mL (≈ 83.9 µM); against Klebsiella aerogenes, 10 µg/mL (≈ 28 µM); in experiment [4] it was 30 µg/mL (≈ 83.9 µM); against Proteus mirabilis, above 30 µg/mL. Moreover, the MIC was above 100 µg/mL in the experiment on Proteus vulgaris; 100 µg/mL (≈ 280 µM) in experiment [5]; 10 µg/mL (≈ 28 µM) with Shigella flexneri; above 10 µg/mL with Serratia marcescens; 30 µg/mL (≈ 83.9 µM) in the experiment with Salmonella typhimurium; 3 µg/mL (≈ 8.39 µM) in the experiment on Streptococcus pyogenes. Also, the MIC in the experiment with Staphylococcus aureus amounted to 30 µg/mL (≈ 83.9 µM); against Enterococcus faecalis it was 30 µg/mL (≈ 83.9 µM); against Streptococcus agalactiae, 10 µg/mL (≈ 28 µM); in the experiment with Vibrio cholerae it was 30 µg/mL (≈ 83.9 µM); against Pasteurella multocida, 30 µg/mL (≈ 83.9 µM); against Klebsiella pneumoniae, 100 µg/mL (≈ 280 µM). Further, the IC50 on Dihydrofolate reductase [2] came to 44 µM.

As for `COc1cc(Cc2cnc(N)nc2N)cc2c1N(C)CCC2C` (stereo unspecified), the MIC (in experiment [1]; in the experiment with Citrobacter freundii; in the experiment on Escherichia coli; in the experiment on Klebsiella aerogenes; in [4]; in the experiment on Proteus mirabilis) was 3 µg/mL (≈ 9.57 µM) throughout. Also, the MIC came out at 10 µg/mL (≈ 31.9 µM) with Proteus vulgaris; 3 µg/mL (≈ 9.57 µM) in [5]; 10 µg/mL (≈ 31.9 µM) against Shigella flexneri; 3 µg/mL (≈ 9.57 µM) against Serratia marcescens; 10 µg/mL (≈ 31.9 µM) in the experiment on Salmonella typhimurium; 1 µg/mL (≈ 3.19 µM) against Staphylococcus aureus. For the same molecule, the MIC against Enterococcus faecalis turned out to be 0.3 µg/mL (≈ 0.957 µM); with Streptococcus agalactiae, 0.3 µg/mL (≈ 0.957 µM); with Vibrio cholerae, 3 µg/mL (≈ 9.57 µM); against Pasteurella multocida it was 3 µg/mL (≈ 9.57 µM); with Klebsiella pneumoniae, 3 µg/mL (≈ 9.57 µM). The IC50 on Dihydrofolate reductase [3] came to 0.89 µM.
